# Results: patent US12281057B2 (VERTEX PHARMACEUTICALS INCORPORATED, priority 2017, dated 2025)
# Target: truncated form of human NaV 1.8 with full channel activity (Homo sapiens, UniProt Q9Y5Y9)
# Assay: E-VIPR Assay Method A for detecting and measuring Nav inhibition (HEK cells, membrane potential FRET dyes, electrical stimulation)
# Assay type: cell-based
# Conditions: HEK cells expressing human NaV 1.8, HS (human serum) in compound loading buffer, 11 point dose response, top dose 3 μM, Table 20A, read-out: Nav 1.8 MedChem Optical Assay EVIPR Assay Method A HS IC50
# Procedure, shortened: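 Read-out: FRET membrane-potential dye ratio (460/580 nm) before and during E-VIPR field stimulation at 10 Hz for 10 s, expressed as % activity between DMSO and positive controls. Cells: HEK with truncated human NaV1.8; compound preincubated 30 min at room temp, final DMSO 0.625%.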
# Sequence of truncated form of human NaV 1.8 with full channel activity (Q9Y5Y9 126-1722 limits assumed): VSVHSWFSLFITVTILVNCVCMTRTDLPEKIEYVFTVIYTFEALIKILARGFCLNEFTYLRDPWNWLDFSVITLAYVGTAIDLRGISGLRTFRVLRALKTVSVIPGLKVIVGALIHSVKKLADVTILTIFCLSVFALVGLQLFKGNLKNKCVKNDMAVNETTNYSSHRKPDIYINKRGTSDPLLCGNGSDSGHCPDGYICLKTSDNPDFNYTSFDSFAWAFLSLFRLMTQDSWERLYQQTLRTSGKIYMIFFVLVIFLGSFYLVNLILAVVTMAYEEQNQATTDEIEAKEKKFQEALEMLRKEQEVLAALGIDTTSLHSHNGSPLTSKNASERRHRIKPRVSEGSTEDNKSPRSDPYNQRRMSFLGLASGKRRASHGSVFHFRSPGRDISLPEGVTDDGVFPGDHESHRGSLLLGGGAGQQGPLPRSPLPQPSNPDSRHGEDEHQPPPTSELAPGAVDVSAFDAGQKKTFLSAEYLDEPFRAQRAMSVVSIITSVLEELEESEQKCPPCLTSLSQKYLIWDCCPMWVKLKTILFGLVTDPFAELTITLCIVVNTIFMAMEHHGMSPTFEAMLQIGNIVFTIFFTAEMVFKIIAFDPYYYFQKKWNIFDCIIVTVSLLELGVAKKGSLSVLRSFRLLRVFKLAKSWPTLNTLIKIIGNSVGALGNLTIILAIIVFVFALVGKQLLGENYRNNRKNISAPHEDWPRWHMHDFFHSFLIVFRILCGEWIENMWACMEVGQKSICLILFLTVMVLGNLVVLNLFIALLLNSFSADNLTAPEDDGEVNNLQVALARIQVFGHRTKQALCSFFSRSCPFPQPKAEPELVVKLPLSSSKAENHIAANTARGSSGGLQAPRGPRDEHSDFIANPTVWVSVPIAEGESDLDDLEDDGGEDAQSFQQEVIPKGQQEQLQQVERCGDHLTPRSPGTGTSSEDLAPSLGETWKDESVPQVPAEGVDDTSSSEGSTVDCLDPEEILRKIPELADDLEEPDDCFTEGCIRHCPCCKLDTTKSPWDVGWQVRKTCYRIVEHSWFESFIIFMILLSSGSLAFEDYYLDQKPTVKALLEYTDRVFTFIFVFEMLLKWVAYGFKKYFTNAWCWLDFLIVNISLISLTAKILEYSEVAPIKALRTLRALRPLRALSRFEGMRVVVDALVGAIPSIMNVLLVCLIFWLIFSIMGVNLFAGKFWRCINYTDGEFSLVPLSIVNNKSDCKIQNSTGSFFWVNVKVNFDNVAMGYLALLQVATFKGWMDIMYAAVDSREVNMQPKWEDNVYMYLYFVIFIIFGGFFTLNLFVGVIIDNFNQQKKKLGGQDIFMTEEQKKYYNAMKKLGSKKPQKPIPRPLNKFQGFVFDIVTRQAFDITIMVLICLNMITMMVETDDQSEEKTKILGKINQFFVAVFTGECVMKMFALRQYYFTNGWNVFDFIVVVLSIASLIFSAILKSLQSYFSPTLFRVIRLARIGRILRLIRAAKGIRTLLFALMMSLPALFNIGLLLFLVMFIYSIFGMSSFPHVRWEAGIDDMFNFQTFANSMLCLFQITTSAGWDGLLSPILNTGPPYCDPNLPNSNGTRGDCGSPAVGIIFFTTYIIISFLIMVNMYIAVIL
row,Compound,IC50 [nM]
1,"COc1cc(F)ccc1Oc1ccc(OC(F)(F)F)cc1C(=O)Nc1ccnc(C(N)=O)c1 [Compound 157, 4-[[2-(4-Fluoro-2-methoxy-phenoxy)-5-(trifluoromethoxy)benzoyl]amino]pyridine-2-carboxamide]",1000
2,"NC(=O)c1ccc(NC(=O)c2c(Cl)cc(Cl)cc2Oc2ccc(OC(F)(F)F)cc2)cn1 [Compound 184, 5-[[2,4-Dichloro-6-[4-(trifluoromethoxy)phenoxy]benzoyl]amino]pyridine-2-carboxamide]",500
3,"NC(=O)c1cc(NC(=O)c2cc(C(F)(F)C(F)(F)F)ccc2Oc2ccc(OC(F)(F)F)cc2)ccc1F [Compound 79, N-(3-Carbamoyl-4-fluoro-phenyl)-5-(1,1,2,2,2-pentafluoroethyl)-2-[4-(trifluoromethoxy)phenoxy]benzamide]",69
4,"NC(=O)c1cc(NC(=O)c2c(Oc3ccc(OC(F)(F)F)c(O)c3)ccc(C(F)(F)F)c2F)ccc1F [Compound 141, N-(3-Carbamoyl-4-fluoro-phenyl)-2-fluoro-6-[3-hydroxy-4-(trifluoromethoxy)phenoxy]-3-(trifluoromethyl)benzamide]",103
5,"CNC(=O)c1cc(NC(=O)c2cnc(C(F)(F)F)cc2Oc2ccc(OC(F)(F)F)cc2OC)cc(C)n1 [Compound 265, 4-[[4-[2-methoxy-4-(trifluoromethoxy)phenoxy]-6-(trifluoromethyl)pyridine-3-carbonyl]amino]-N,6-dimethyl-pyridine-2-carboxamide]",1450
6,"CC(C)c1cc(Oc2ccc(OC(F)(F)F)c(F)c2)c(C(=O)Nc2ccc(F)c(C(N)=O)c2)cn1 [Compound 33, N-(3-Carbamoyl-4-fluoro-phenyl)-4-[3-fluoro-4-(trifluoromethoxy)phenoxy]-6-isopropyl-pyridine-3-carboxamide]",520
7,"NC(=O)c1cc(NC(=O)c2ccc(OC(F)(F)F)cc2Oc2ccc(OC(F)(F)F)cc2)ccn1 [Compound 149, 4-[[4-(Trifluoromethoxy)-2-[4-(trifluoromethoxy)phenoxy]benzoyl]amino]pyridine-2-carboxamide]",1500
8,"[2H]C([2H])([2H])Oc1cc(OC(F)(F)F)ccc1Oc1ccc(OC(F)(F)F)cc1C(=O)Nc1ccnc(C(N)=O)c1 [Compound 158, 4-[[2-[2-(Trideuteriomethoxy)-4-(trifluoromethoxy)phenoxy]-5-(trifluoromethoxy)benzoyl]amino]pyridine-2-carboxamide]",150
9,"COc1cc(OC(F)(F)F)ccc1Oc1cc(C(C)(C)F)ncc1C(=O)Nc1ccnc(C(N)=O)c1 [Compound 104, N-(2-Carbamoyl-4-pyridyl)-6-(1-fluoro-1-methyl-ethyl)-4-[2-methoxy-4-(trifluoromethoxy)phenoxy]pyridine-3-carboxamide]",64
10,"NC(=O)c1ccc(NC(=O)c2c(Oc3ccc(OC(F)(F)F)cc3)ccc(C(F)(F)F)c2F)cc1F [Compound 65, N-(4-Carbamoyl-3-fluoro-phenyl)-2-fluoro-6-[4-(trifluoromethoxy)phenoxy]-3-(trifluoromethyl)benzamide]",79
11,"NC(=O)c1cc(NC(=O)c2c(Oc3ccc(OC(F)(F)F)cc3)ccc(C3CC3)c2F)ccn1 [Compound 72, 4-[[3-Cyclopropyl-2-fluoro-6-[4-(trifluoromethoxy)phenoxy]benzoyl]amino]pyridine-2-carboxamide]",175
12,"NC(=O)c1cc(NC(=O)c2cc(C(F)(F)C(F)(F)F)ccc2Oc2ccc(OC(F)(F)F)cc2)ccn1 [Compound 80, 4-[[5-(1,1,2,2,2-pentafluoroethyl)-2-[4-(trifluoromethoxy)phenoxy]benzoyl]amino]pyridine-2-carboxamide]",127
13,"Cc1cnc(C(N)=O)cc1NC(=O)c1c(Oc2ccc(OC(F)(F)F)cc2)ccc(Cl)c1F [Compound 244, 4-[[3-chloro-2-fluoro-6-[4-(trifluoromethoxy)phenoxy]benzoyl]amino]-5-methyl-pyridine-2-carboxamide]",73
14,"NC(=O)c1cccc(NC(=O)c2c(Oc3ccc(F)cc3)ccc(C(F)(F)F)c2F)c1 [Compound 49, N-(3-carbamoylphenyl)-2-fluoro-6-(4-fluorophenoxy)-3-(trifluoromethyl)benzamide]",130
15,"NC(=O)c1cc(NC(=O)c2c(F)c(C(F)(F)F)cc(OCc3ccccc3)c2Oc2ccc(OC(F)(F)F)cc2)ccc1F [Compound 217, 5-Benzyloxy-N-(3-carbamoyl-4-fluoro-phenyl)-2-fluoro-6-[4-(trifluoromethoxy)phenoxy]-3-(trifluoromethyl)benzamide]",1100
16,"COc1cc(OC(F)(F)F)ccc1Oc1cc(C(F)(F)F)ccc1C(=O)Nc1ccc(F)c(C(N)=O)c1 [Compound 27, N-(3-Carbamoyl-4-fluoro-phenyl)-2-[2-methoxy-4-(trifluoromethoxy)phenoxy]-4-(trifluoromethyl)benzamide]",87

# More lines, now with the values ahead:
row,IC50 [nM],Compound
1,53,"NC(=O)c1cc(NC(=O)c2c(Oc3ccc(OC(F)(F)F)cc3)ccc(Cl)c2F)ccn1 [Compound 70, 4-[[3-Chloro-2-fluoro-6-[4-(trifluoromethoxy)phenoxy]benzoyl]amino]pyridine-2-carboxamide]"
2,16,"COc1cc(OC(F)(F)F)ccc1Oc1ccc(C(F)(F)F)c(F)c1C(=O)Nc1ccc(C(N)=O)nc1 [Compound 193, 5-[[2-fluoro-6-[2-methoxy-4-(trifluoromethoxy)phenoxy]-3-(trifluoromethyl)benzoyl]amino]pyridine-2-carboxamide]"
3,47,"[2H]C([2H])([2H])Oc1c(Oc2ccc(C(F)(F)F)c(F)c2C(=O)Nc2ccc(C(=O)NC)nc2)ccc(OC(F)(F)F)c1F [Compound 229, 5-[[2-Fluoro-6-[3-fluoro-2-(trideuteriomethoxy)-4-(trifluoromethoxy)phenoxy]-3-(trifluoromethyl)benzoyl]amino]-N-methyl-pyridine-2-carboxamide]"
4,11,"COc1ccc(Oc2ccc(C(F)(F)F)c(F)c2C(=O)Nc2ccnc(C(N)=O)c2)c(OC)c1 [Compound 195, 4-[[6-(2,4-Dimethoxyphenoxy)-2-fluoro-3-(trifluoromethyl)benzoyl]amino]pyridine-2-carboxamide]"
5,40,"COc1cc(OC(F)(F)F)ccc1Oc1ccc(C(F)(F)F)c(OC)c1C(=O)Nc1ccc(C(N)=O)nc1 [Compound 202, 5-[[2-Methoxy-6-[2-methoxy-4-(trifluoromethoxy)phenoxy]-3-(trifluoromethyl)benzoyl]amino]pyridine-2-carboxamide]"
6,44,"COc1cc(OC(F)(F)F)ccc1Oc1cc(C2(C)CC2)ncc1C(=O)Nc1ccnc(C(N)=O)c1 [Compound 105, N-(2-Carbamoyl-4-pyridyl)-4-[2-methoxy-4-(trifluoromethoxy)phenoxy]-6-(1-methylcyclopropyl)pyridine-3-carboxamide]"
7,3,"[2H]C([2H])([2H])Oc1c(Oc2cc(Cl)c(C([2H])([2H])[2H])c(F)c2C(=O)Nc2ccnc(C(N)=O)c2)ccc(OC(F)(F)F)c1F [Compound 222, 4-[[4-Chloro-2-fluoro-6-[3-fluoro-2-(trideuteriomethoxy)-4-(trifluoromethoxy)phenoxy]-3-(trideuteriomethyl)benzoyl]amino]pyridine-2-carboxamide]"
8,38,"NC(=O)c1cc(NC(=O)c2c(Oc3ccc(OC(F)(F)F)c(F)c3)ccc(OC(F)(F)F)c2F)ccn1 [Compound 241, 4-[[2-fluoro-6-[3-fluoro-4-(trifluoromethoxy)phenoxy]-3-(trifluoromethoxy)benzoyl]amino]pyridine-2-carboxamide]"
9,13,"NC(=O)c1cc(NC(=O)c2c(Oc3ccc(F)cc3OC(F)F)ccc(C(F)(F)F)c2F)ccn1 [Compound 208, 4-[[6-[2-(Difluoromethoxy)-4-fluoro-phenoxy]-2-fluoro-3-(trifluoromethyl)benzoyl]amino]pyridine-2-carboxamide]"
10,9,"[2H]C([2H])([2H])Oc1cc(OC(F)(F)F)ccc1Oc1ccc(C(F)(F)F)c(F)c1C(=O)Nc1ccc(C)c(C(N)=O)c1 [Compound 145, N-(3-carbamoyl-4-methyl-phenyl)-2-fluoro-6-[2-(trideuteriomethoxy)-4-(trifluoromethoxy)phenoxy]-3-(trifluoromethyl)benzamide]"
11,45,"[2H]C([2H])([2H])Oc1cc(OC(F)(F)F)ccc1Oc1ccc(OC(F)(F)F)c(F)c1C(=O)Nc1ccc(C(N)=O)nc1 [Compound 167, 5-[[2-fluoro-6-[2-(trideuteriomethoxy)-4-(trifluoromethoxy)phenoxy]-3-(trifluoromethoxy)benzoyl]amino]pyridine-2-carboxamide]"
12,9,"[2H]C([2H])([2H])Oc1c(Oc2ccc(OC(F)(F)F)c(F)c2C(=O)Nc2cc(C(N)=O)ncc2C)ccc(OC(F)(F)F)c1F [Compound 231, 4-[[2-Fluoro-6-[3-fluoro-2-(trideuteriomethoxy)-4-(trifluoromethoxy)phenoxy]-3-(trifluoromethoxy)benzoyl]amino]-5-methyl-pyridine-2-carboxamide]"
13,55,"COc1cc(OC(F)(F)F)ccc1Oc1cc(C(F)(F)F)cnc1C(=O)Nc1ccc(F)c(C(N)=O)c1 [Compound 32, N-(3-Carbamoyl-4-fluoro-phenyl)-3-[2-methoxy-4-(trifluoromethoxy)phenoxy]-5-(trifluoromethyl)pyridine-2-carboxamide]"
14,4,"[2H]C([2H])([2H])Oc1c(Oc2cc(Cl)c(C(F)F)c(F)c2C(=O)Nc2ccnc(C(N)=O)c2)ccc(OC(F)(F)F)c1F [Compound 234, 4-[[4-Chloro-3-(difluoromethyl)-2-fluoro-6-[3-fluoro-2-(trideuteriomethoxy)-4-(trifluoromethoxy)phenoxy]benzoyl]amino]pyridine-2-carboxamide]"
15,63,"COc1cc(OC(F)(F)F)ccc1Oc1cc(C(C)(C)C)ncc1C(=O)Nc1ccnc(C(N)=O)c1 [Compound 93, 6-tert-Butyl-N-(2-carbamoyl-4-pyridyl)-4-[2-methoxy-4-(trifluoromethoxy)phenoxy]pyridine-3-carboxamide]"
